Measurements published in ChEMBL document CHEMBL5260810, “Inhibition of bromodomain-containing protein 9 for the prevention of epigenetically-defined drug resistance” (Bioorg Med Chem Lett, 2017).
pIC50: −log10 of the molar value. The source made the active and inactive calls. No cut-off for these calls is given here.

Columns and labels:
Toledo = assay: Cytotoxicity against human Toledo cells measured after 8 days; format: functional, cell-based; conditions: 192 h
Pfeiffer = assay: Cytotoxicity against human Pfeiffer cells measured after 8 days; format: functional, cell-based; conditions: 192 h
Kasumi 1 = assay: Cytotoxicity against human Kasumi 1 cells measured after 8 days; format: functional, cell-based; conditions: Kasumi 1, 192 h
BT-474 = assay: Antiproliferative activity against human BT-474 cells assessed as reduction in colony formation up to 20 uM supplemented with fresh medium containing compound every 3 days for 9 days by MTT staining based clonogenic assay; format: functional, cell-based; conditions: time 9.0 day
HL-60 = assay: Cytotoxicity against human HL-60 cells measured after 8 days; format: functional, cell-based; conditions: HL-60, 192 h
A2058 = assay: Antiproliferative activity against human A2058 cells assessed as reduction in colony formation upto 20 uM supplemented with fresh medium containing compound every 3 days for 9 days by MTT staining based clonogenic assay; format: functional, cell-based; conditions: time 9.0 day
MCF7 = assay: Antiproliferative activity against human MCF7 cells assessed as reduction in colony formation up to 20 uM supplemented with fresh medium containing compound every 3 days for 9 days by MTT staining based clonogenic assay; format: functional, cell-based; conditions: time 9.0 day
NCI-H2444 = assay: Cytotoxicity against human NCI-H2444 cells measured after 3 days; format: functional, cell-based; conditions: NCI-H2444, 72 h
[1] = Cytotoxicity against human RKN cells measured after 3 days; format: functional, cell-based; conditions: 72 h
OCI-LY19 = assay: Cytotoxicity against human OCILY19 cells measured after 3 days; format: functional, cell-based; conditions: OCI-LY19, 72 h
[2] = Cytotoxicity against human EFM-192A cells measured after 8 days; format: functional, cell-based; conditions: 192 h
OCI-AML2 = assay: Cytotoxicity against human OCI-AML2 cells measured after 3 days; format: functional, cell-based; conditions: OCI-AML2, 72 h
DOHH-2 = assay: Cytotoxicity against human DOHH-2 cells measured after 3 days; format: functional, cell-based; conditions: DOHH-2, 72 h
L-363 = assay: Cytotoxicity against human L-363 cells measured after 3 days; format: functional, cell-based; conditions: L-363, 72 h
HBL-100 = assay: Cytotoxicity against human HBL-100 cells measured after 8 days; format: functional, cell-based; conditions: HBL-100, 192 h
HEY = assay: Cytotoxicity against human HEY cells measured after 3 days; format: functional, cell-based; conditions: 72 h
AU565 = assay: Cytotoxicity against human AU565 cells measured after 3 days; format: functional, cell-based; conditions: AU565, 72 h
HCC70 = assay: Cytotoxicity against human HCC70 cells measured after 3 days; format: functional, cell-based; conditions: HCC70, 72 h
SUD4 = assay: Cytotoxicity against human SU-DHL-4 cells measured after 3 days; format: functional, cell-based; conditions: SU-DHL-4, 72 h
A2780 = assay: Cytotoxicity against human A2780 cells measured after 3 days; format: functional, cell-based; conditions: A2780, 72 h
[3] = Cytotoxicity against human EFM-192A cells measured after 3 days; format: functional, cell-based; conditions: 72 h
[4] = Cytotoxicity against human HS-Sultan cells measured after 3 days; format: functional, cell-based; conditions: 72 h
KMS-12-BM = assay: Cytotoxicity against human KMS-12-BM cells measured after 3 days; format: functional, cell-based; conditions: 72 h
ML-2 = assay: Cytotoxicity against human ML-2 cells measured after 3 days; format: functional, cell-based; conditions: ML-2, 72 h
TYK-nu = assay: Cytotoxicity against human TYK-nu cells measured after 3 days; format: functional, cell-based; conditions: 72 h
HepG2 = assay: Cytotoxicity against human HepG2 cells measured after 3 days; format: functional, cell-based; conditions: HepG2, 72 h
SW626 = assay: Cytotoxicity against human SW626 cells measured after 3 days; format: functional, cell-based; conditions: SW626, 72 h
[5] = Cytotoxicity against human 59M cells measured after 3 days; format: functional, cell-based; conditions: 72 h
[6] = Cytotoxicity against human COV362.4 cells measured after 3 days; format: functional, cell-based; conditions: COV362.4, 72 h
CAL-85-1 = assay: Cytotoxicity against human CAL-85-1 cells measured after 3 days; format: functional, cell-based; conditions: CAL-85-1, 72 h
RPMI-8226 = assay: Cytotoxicity against human RPMI-8226 cells measured after 3 days; format: functional, cell-based; conditions: RPMI-8226, 72 h
[7] = Cytotoxicity against human NCE-G 84 cells measured after 3 days; format: functional, cell-based; conditions: NCE-G 84, 72 h
[8] = Cytotoxicity against human MCAS cells measured after 3 days; format: functional, cell-based; conditions: 72 h
SU-DHL-1 = assay: Cytotoxicity against human SU-DHL-1 cells measured after 3 days; format: functional, cell-based; conditions: SU-DHL-1, 72 h
TMD8 = assay: Cytotoxicity against human TMD8 cells measured after 3 days; format: functional, cell-based; conditions: TMD8, 72 h
[9] = Cytotoxicity against human ONCO-DG-1 cells measured after 3 days; format: functional, cell-based; conditions: ONCO-DG-1, 72 h
IGROV-1 = assay: Cytotoxicity against human IGROV-1 cells measured after 3 days; format: functional, cell-based; conditions: IGROV-1, 72 h
SUP-B15 = assay: Cytotoxicity against human SUP-B15 cells measured after 3 days; format: functional, cell-based; conditions: SUP-B15, 72 h
[10] = Cytotoxicity against human HNT-34 cells measured after 3 days; format: functional, cell-based; conditions: HNT-34, 72 h
[11] = biological target: Bromodomain-containing protein 4 (Homo sapiens, UniProt O60885); assay: Binding affinity to BRD4 in human PC-9 cell lysate assessed as increase in thermal stabilization at 2 uM at 38 to 71 degreeC measured after 30 mins by CETSA; format: subcellular
HMEC = assay: Cytotoxicity against HMEC cells measured after 8 days; format: functional, cell-based; conditions: Homo sapiens, 192 h
[12] = Cytotoxicity against human MOLM16 cells measured after 3 days; format: functional, cell-based, MOLM-16; conditions: MOLM16, 72 h
NCI-H2170 = assay: Cytotoxicity against human NCI-H2170 cells measured after 3 days; format: functional, cell-based; conditions: NCI-H2170, 72 h
SU-DHL-16 = assay: Cytotoxicity against human SU-DHL-16 cells measured after 3 days; format: functional, cell-based; conditions: SU-DHL-16, 72 h
[13] = Cytotoxicity against human OV7 cells measured after 3 days; format: functional, cell-based; conditions: OV7, 72 h
[14] = Cytotoxicity against human MT-3 cells measured after 3 days; format: functional, cell-based; conditions: MT-3, 72 h
JIYOYE = assay: Cytotoxicity against human JIYOYE cells measured after 3 days; format: functional, cell-based; conditions: 72 h
HCC1143 = assay: Cytotoxicity against human HCC1143 cells measured after 3 days; format: functional, cell-based; conditions: HCC1143, 72 h
CAL-12T = assay: Cytotoxicity against human CAL-12T cells measured after 3 days; format: functional, cell-based; conditions: 72 h
[15] = Cytotoxicity against human HuH-1 cells measured after 3 days; format: functional, cell-based; conditions: HuH-1, 72 h
SCC-3 = assay: Cytotoxicity against human SCC-3 cells measured after 3 days; format: functional, cell-based; conditions: SCC-3, 72 h
EKVX = assay: Cytotoxicity against human EKVX cells after 8 days; format: functional, cell-based; conditions: 192 h
MC116 = assay: Cytotoxicity against human MC116 cells measured after 3 days; format: functional, cell-based; conditions: MC116, 72 h
[16] = Cytotoxicity against human HCC1623 cells measured after 3 days; format: functional, cell-based; conditions: HCC1623, 72 h
EFO-27 = assay: Cytotoxicity against human EFO-27 cells measured after 3 days; format: functional, cell-based; conditions: EFO-27, 72 h
[17] = Cytotoxicity against human NCI-H820 cells measured after 8 days; format: functional, cell-based; conditions: NCI-H820, 192 h
SW982 = assay: Cytotoxicity against human SW982 cells measured after 3 days; format: functional, cell-based; conditions: SW982, 72 h
JJN-3 = assay: Cytotoxicity against human JJN-3 cells measured after 3 days; format: functional, cell-based; conditions: JJN-3, 72 h
OCI-AML-3 = assay: Cytotoxicity against human OCI-AML-3 cells measured after 3 days; format: functional, cell-based; conditions: OCI-AML-3, 72 h

SMILES: C/C=C/Cn1cc(-c2ccc(C(C)(C)O)cc2OC)c2cc[nH]c2c1=O
- pIC50 (Toledo): 4.70
- pIC50 (Pfeiffer): 5.16
- pIC50 (Kasumi 1): 5.44
- Activity (BT-474): inactive
- pIC50 (HL-60): 4.87
- Activity (A2058): inactive
- Activity (MCF7): inactive

SMILES: C/C=C/Cn1cc(-c2cc(OC)c(C(=O)N3CCOCC3)cc2OC)c2cc(C)[nH]c2c1=O
- pIC50 (NCI-H2444): 5.30
- pIC50 [1]: 5.30
- pIC50 (OCI-LY19): 5.30
- pIC50 [2]: 5.70
- pIC50 (OCI-AML2): 5.30
- pIC50 (DOHH-2): 5.30
- pIC50 (L-363): 5.30
- pIC50 (HBL-100): 5.70
- pIC50 (HEY): 5.30
- pIC50 (AU565): 5.30
- pIC50 (HCC70): 5.30
- pIC50 (SUD4): 5.30
- pIC50 (A2780): 5.30
- pIC50 [3]: 5.30
- pIC50 [4]: 5.30
- pIC50 (KMS-12-BM): 5.30
- pIC50 (ML-2): 5.30
- pIC50 (TYK-nu): 5.30
- pIC50 (HepG2): 5.30
- pIC50 (SW626): 5.30
- pIC50 [5]: 5.30
- pIC50 [6]: 5.30
- pIC50 (CAL-85-1): 5.30
- pIC50 (RPMI-8226): 5.30
- pIC50 [7]: 5.30
- pIC50 [8]: 5.30
- pIC50 (SU-DHL-1): 5.30
- pIC50 (TMD8): 5.30
- pIC50 [9]: 5.30
- pIC50 (IGROV-1): 5.30
- pIC50 (SUP-B15): 5.30
- pIC50 [10]: 5.30
- Activity [11]: inactive
- pIC50 (HMEC): 5.70
- pIC50 [12]: 5.30
- pIC50 (NCI-H2170): 5.30
- pIC50 (SU-DHL-16): 5.30
- pIC50 [13]: 5.30
- pIC50 [14]: 5.30
- pIC50 (JIYOYE): 5.30
- pIC50 (HCC1143): 5.30
- pIC50 (CAL-12T): 5.30
- pIC50 [15]: 5.30
- pIC50 (SCC-3): 5.30
- pIC50 (EKVX): 5.70
- pIC50 (MC116): 5.30
- pIC50 [16]: 5.30
- pIC50 (EFO-27): 5.30
- pIC50 [17]: 5.70
- pIC50 (SW982): 5.30
- pIC50 (JJN-3): 5.30
- pIC50 (OCI-AML-3): 5.30
